The values that follow are results of earlier work, collected in patent US20180028452A1, “ANTIEMETIC EXTENDED RELEASE SOLID DOSAGE FORMS” (RedHill Biopharma Ltd., priority 2013, published 2018).

The conditions of data set [1]: water and normal saline.
For data set [2] the following is noted: scale of Pliska et al., J. Chromatog. 216, 79, 1981.

Structures can show the parent of a compound that is named as a salt.

For the compound `Cc1nccn1CC1CCc2c(c3ccccc3n2C)C1=O` (racemic) [Ondansetron HCl dihydrate, Ondansetron hydrochloride], in data set [1], the solubility entry was “soluble in water and normal saline”.
With `N[C@@H](CC(=O)O)C(=O)O` [aspartic acid], in data set [2], the “hydropathy value (relative hydrophobic character)” value is reported as −2.15.
As for `NCC(=O)O` [glycine], the “hydropathy value (relative hydrophobic character)” value in data set [2] is 0.
As for `CC[C@H](C)[C@H](N)C(=O)O` [iso-leucine], the “hydropathy value (relative hydrophobic character)” value in data set [2] is given as 1.83.
